Values joined by “and” are separate entries in the source; they are usually repeats but may differ in a detail not shown here. Equal entries are not always repeated.
Assay: Biodistribution study in male Wistar rats
Type: in vivo, rat
Conditions: for striatum/blood ratio / striatum/cortex ratio / striatum/hippocampus ratio / striatum/cerebellum ratio: % ID/g values normalized for the body weight; for % ID/g × kg in Blood / % ID/g × kg in Cerebellum / % ID/g × kg in Cerebrum + Cerebellum / % ID/g × kg in Cerebrum total / % ID/g × kg in Cortex / % ID/g × kg in Heart / % ID/g × kg in Hippocampus / % ID/g × kg in Kidneys / % ID/g × kg in Liver / % ID/g × kg in Lungs / % ID/g × kg in Rest of cerebrum / % ID/g × kg in Spleen + Pancreas / % ID/g × kg in Striatum: normalized for body weight
Description: (§1) The biodistribution study of [^18F]B-1 was carried out in male Wistar rats (body weight 250-350 g) at 2 min, 30 min and 60 min post injection (p.i.) (n=3/time point). Rats were injected with about 1.1 MBq of the tracer via tail vein under anesthesia (2.5% Isoflurane in O2 at 1 L/min flow rate) and sacrificed by decapitation at above specified time points. Blood and major organs were collected in tared tubes and weighed. The radioactivity in blood, organs and other body parts was measured using an automated gamma counter The distribution of radioactivity in different parts of the body at different time points p.i. of the tracer was calculated and expressed as percentage of injected dose (% ID), and as percentage of injected dose per gram tissue (% ID/g) for the selected organs. % ID is calculated as cpm in organ/total cpm recovered. For calculation of total radioactivity in blood, blood mass was assumed to be 7% of the body mass.
as §1, with “[^18F]B-2” for “[^18F]B-1”, “270-340” for “250-350”

## [18F]CCCn1cc(-c2ccncc2)c(-c2ccc(OCc3ccc4ccccc4n3)cc2)n1 [[^18F]B-1]
2 min p.i.
  % ID in Carcass: 27.70 ± 0.7 % ID
  % ID in Cerebellum: 0.096 ± 0.0 % ID
  % ID in Cerebrum total: 0.4 % ID and 0.407 ± 0.1 % ID
  % ID in Cortex: 0.072 ± 0.01 % ID
  % ID in Heart: 0.87 ± 0.1 % ID
  % ID in Hippocampus: 0.013 ± 0.00 % ID
  % ID in Intestines: 8.89 ± 0.5 % ID
  % ID in Kidneys: 5.31 ± 0.7 % ID
  % ID in Liver: 48.20 ± 1.8 % ID
  % ID in Lungs: 2.79 ± 0.6 % ID
  % ID in Rest of cerebrum: 0.307 ± 0.05 % ID
  % ID in Spleen + Pancreas: 1.63 ± 0.1 % ID
  % ID in Stomach: 1.74 ± 0.2 % ID
  % ID in Striatum: 0.015 % ID and 0.015 ± 0.00 % ID
  % ID in Urine: 0.09 ± 0.0 % ID
  % ID/g in Blood: 0.19 ± 0.02 % ID/g
  % ID/g in Cerebellum: 0.39 ± 0.06 % ID/g
  % ID/g in Cerebrum + Cerebellum: 0.33 ± 0.05 % ID/g
  % ID/g in Cerebrum total: 0.31 ± 0.05 % ID/g
  % ID/g in Cortex: 0.40 ± 0.11 % ID/g
  % ID/g in Heart: 1.06 ± 0.20 % ID/g
  % ID/g in Liver: 3.79 ± 0.19 % ID/g
  % ID/g in Lungs: 2.36 ± 0.75 % ID/g
  % ID/g in Rest of cerebrum: 0.30 ± 0.04 % ID/g
  % ID/g in Spleen + Pancreas: 1.18 ± 0.17 % ID/g
  striatum/blood ratio: 2.1
  striatum/cortex ratio: 1.0
  striatum/hippocampus ratio: 2.0
  % ID/g × kg in Blood: 0.05 ± 0.00 % ID/g × kg
  % ID/g × kg in Cerebellum: 0.100 ± 0.02 % ID/g × kg
  % ID/g × kg in Cerebrum + Cerebellum: 0.08 ± 0.01 % ID/g × kg
  % ID/g × kg in Cerebrum total: 0.080 ± 0.01 % ID/g × kg
  % ID/g × kg in Cortex: 0.103 ± 0.03 % ID/g × kg
  % ID/g × kg in Heart: 0.27 ± 0.05 % ID/g × kg
  % ID/g × kg in Hippocampus: 0.052 ± 0.01 % ID/g × kg
  % ID/g × kg in Kidneys: 0.57 ± 0.07 % ID/g × kg
  % ID/g × kg in Liver: 0.97 ± 0.05 % ID/g × kg
  % ID/g × kg in Lungs: 0.60 ± 0.19 % ID/g × kg
  % ID/g × kg in Rest of cerebrum: 0.077 ± 0.01 % ID/g × kg
  % ID/g × kg in Spleen + Pancreas: 0.30 ± 0.04 % ID/g × kg
  % ID/g × kg in Striatum: 0.102 ± 0.01 % ID/g × kg
2 min p.i., % of injected dose
  total brain uptake of the tracer: ~0.5%
30 min p.i.
  % ID in Blood: 2.12 ± 0.1 % ID
  % ID in Carcass: 25.24 ± 1.7 % ID
  % ID in Cerebellum: 0.021 ± 0.0 % ID
  % ID in Cerebrum total: 0.158 ± 0.01 % ID
  % ID in Cortex: 0.018 ± 0.00 % ID
  % ID in Heart: 0.22 ± 0.0 % ID
  % ID in Hippocampus: 0.004 ± 0.00 % ID
  % ID in Intestines: 14.44 ± 3.0 % ID
  % ID in Kidneys: 1.55 ± 0.1 % ID
  % ID in Liver: 49.64 ± 5.3 % ID
  % ID in Lungs: 1.81 ± 0.0 % ID
  % ID in Rest of cerebrum: 0.122 ± 0.00 % ID
  % ID in Spleen + Pancreas: 0.42 ± 0.1 % ID
  % ID in Stomach: 4.60 ± 0.6 % ID
  % ID in Striatum: 0.014 ± 0.00 % ID
  % ID in Urine: 0.61 ± 0.3 % ID
  % ID/g in Blood: 0.12 ± 0.01 % ID/g
  % ID/g in Cerebellum: 0.09 ± 0.01 % ID/g
  % ID/g in Cerebrum + Cerebellum: 0.12 ± 0.01 % ID/g
  % ID/g in Cerebrum total: 0.12 ± 0.01 % ID/g
  % ID/g in Cortex: 0.11 ± 0.02 % ID/g
  % ID/g in Heart: 0.26 ± 0.02 % ID/g
  % ID/g in Hippocampus: 0.08 ± 0.01 % ID/g
  % ID/g in Kidneys: 0.64 ± 0.04 % ID/g
  % ID/g in Liver: 4.00 ± 0.37 % ID/g
  % ID/g in Lungs: 1.38 ± 0.11 % ID/g
  % ID/g in Rest of cerebrum: 0.12 ± 0.01 % ID/g
  % ID/g in Spleen + Pancreas: 0.27 ± 0.01 % ID/g
  % ID/g in Striatum: 0.41 ± 0.00 % ID/g
  striatum/blood ratio: 3.5
  striatum/cerebellum ratio: 4.6
  striatum/cortex ratio: 3.9
  striatum/hippocampus ratio: 5.1
  % ID/g × kg in Blood: 0.03 ± 0.00 % ID/g × kg
  % ID/g × kg in Cerebellum: 0.023 ± 0.00 % ID/g × kg
  % ID/g × kg in Cerebrum + Cerebellum: 0.03 ± 0.00 % ID/g × kg
  % ID/g × kg in Cerebrum total: 0.032 ± 0.00 % ID/g × kg
  % ID/g × kg in Cortex: 0.027 ± 0.01 % ID/g × kg
  % ID/g × kg in Heart: 0.07 ± 0.00 % ID/g × kg
  % ID/g × kg in Hippocampus: 0.021 ± 0.00 % ID/g × kg
  % ID/g × kg in Kidneys: 0.16 ± 0.01 % ID/g × kg
  % ID/g × kg in Liver: 1.03 ± 0.08 % ID/g × kg
  % ID/g × kg in Lungs: 0.35 ± 0.03 % ID/g × kg
  % ID/g × kg in Rest of cerebrum: 0.030 ± 0.00 % ID/g × kg
  % ID/g × kg in Spleen + Pancreas: 0.07 ± 0.00 % ID/g × kg
  % ID/g × kg in Striatum: 0.106 ± 0.00 % ID/g × kg
60 min p.i.
  % ID in Blood: 1.9 % ID and 1.94 ± 0.1 % ID
  % ID in Carcass: 27.96 ± 0.7 % ID
  % ID in Cerebellum: 0.012 ± 0.00 % ID
  % ID in Cerebrum total: 0.101 ± 0.01 % ID
  % ID in Cortex: 0.012 ± 0.00 % ID
  % ID in Heart: 0.17 ± 0.0 % ID
  % ID in Hippocampus: 0.003 ± 0.00 % ID
  % ID in Intestines: 14.72 ± 4.1 % ID
  % ID in Kidneys: 1.45 ± 0.1 % ID
  % ID in Liver: 41.44 ± 1.5 % ID
  % ID in Lungs: 0.32 ± 0.0 % ID
  % ID in Rest of cerebrum: 0.071 ± 0.01 % ID
  % ID in Spleen + Pancreas: 0.31 ± 0.0 % ID
  % ID in Stomach: 10.00 ± 2.5 % ID
  % ID in Striatum: 0.015 ± 0.00 % ID
  % ID in Urine: 1.87 ± 0.2 % ID
  % ID present in the liver and intestines in total: 56 % ID
  % ID present in the urinary system: ~3.3 % ID
  % ID/g in Blood: 0.08 ± 0.00 % ID/g
  % ID/g in Cerebellum: 0.04 ± 0.00 % ID/g
  % ID/g in Cerebrum + Cerebellum: 0.07 ± 0.00 % ID/g
  % ID/g in Cerebrum total: 0.07 ± 0.00 % ID/g
  % ID/g in Cortex: 0.06 ± 0.00 % ID/g
  % ID/g in Heart: 0.16 ± 0.00 % ID/g
  % ID/g in Hippocampus: 0.05 ± 0.01 % ID/g
  % ID/g in Kidneys: 0.46 ± 0.02 % ID/g
  % ID/g in Liver: 3.11 ± 0.06 % ID/g
  % ID/g in Lungs: 0.20 ± 0.02 % ID/g
  % ID/g in Rest of cerebrum: 0.07 ± 0.00 % ID/g
  % ID/g in Spleen + Pancreas: 0.19 ± 0.01 % ID/g
  striatum/blood ratio: 3.0
  striatum/cerebellum ratio: 5.6
  striatum/cortex ratio: 4.4
  striatum/hippocampus ratio: 5.2
  % ID/g × kg in Blood: 0.03 ± 0.00 % ID/g × kg
  % ID/g × kg in Cerebellum: 0.015 ± 0.00 % ID/g × kg
  % ID/g × kg in Cerebrum + Cerebellum: 0.02 ± 0.00 % ID/g × kg
  % ID/g × kg in Cerebrum total: 0.024 ± 0.00 % ID/g × kg
  % ID/g × kg in Cortex: 0.019 ± 0.00 % ID/g × kg
  % ID/g × kg in Heart: 0.05 ± 0.00 % ID/g × kg
  % ID/g × kg in Hippocampus: 0.016 ± 0.00 % ID/g × kg
  % ID/g × kg in Kidneys: 0.16 ± 0.01 % ID/g × kg
  % ID/g × kg in Liver: 1.04 ± 0.02 % ID/g × kg
  % ID/g × kg in Lungs: 0.07 ± 0.01 % ID/g × kg
  % ID/g × kg in Rest of cerebrum: 0.022 ± 0.00 % ID/g × kg
  % ID/g × kg in Spleen + Pancreas: 0.06 ± 0.01 % ID/g × kg
  % ID/g × kg in Striatum: 0.083 ± 0.01 % ID/g × kg
Blood
  Clearance, 2 min/30 min ratio for % ID/g values: 1.60
  Clearance, 2 min/60 min ratio for % ID/g values: 2.28
Cerebellum
  Clearance, 2 min/30 min ratio for % ID/g values: 4.37
  Clearance, 2 min/60 min ratio for % ID/g values: 8.8 and 8.81
Cerebrum total
  Clearance, 2 min/30 min ratio for % ID/g values: 2.54
  Clearance, 2 min/60 min ratio for % ID/g values: 4.34
Cortex
  Clearance, 2 min/30 min ratio for % ID/g values: 3.81
  Clearance, 2 min/60 min ratio for % ID/g values: 7.19
Hippocampus
  Clearance, 2 min/30 min ratio for % ID/g values: 2.54
  Clearance, 2 min/60 min ratio for % ID/g values: 4.33
Rest of cerebrum
  Clearance, 2 min/30 min ratio for % ID/g values: 2.54
  Clearance, 2 min/60 min ratio for % ID/g values: 4.53
Striatum
  Clearance, 2 min/30 min ratio for % ID/g values: 0.97
  Clearance, 2 min/60 min ratio for % ID/g values: 1.6 and 1.62
At all time points examined
  % ID present in the carcass: ~26 % ID

Reference: patent publication US20110305637A1, “RADIOLABELLED PDE10 LIGANDS” (Janssen Pharmaceutica N.V., priority 2009, published 2011)
